Test results published in ChEMBL document CHEMBL1201862, “PubChem BioAssay data set” (2004).
Where a name gives a salt, the structure may show the parent alone.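 Five compound concentrations were applied to cells in 96-well plates for 48 hours; endpoints were derived by simple linear interpolation of the resulting dose-response curve. GI50 = concentration required for 50% inhibition of growth.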 Activity calls are given as the source filed them. Rule as the data show it: active = GI50 up to about 1.1 µM and inactive = higher.

What was measured:
Assay in all cases: growth of human tumour cells (NCI), 48 h
[1] = tested on: LXFL 529
[2] = tested on: KM-20L2
[3] = tested on: DMS-114
[4] = tested on: DLD-1
[5] = tested on: SNB-78
[6] = tested on: DMS-273
[7] = tested on: XF498
[8] = tested on: HOP-18
[9] = tested on: RXF 631

Measured: GI50

COc1cc(C=C2C(=O)NC(=O)NC2=O)cc(OC)c1OC
inactive: [1] > 100 µM | [2] > 100 µM | [3] > 100 µM | [4] > 100 µM | [5] > 100 µM | [6] > 100 µM | [7] > 100 µM | [8] > 100 µM

CCOC(=O)C12CN(C34CC5CC(CC(C5)C3)C4)CC(C(=O)OCC)(C1=O)C(c1ccccc1)OC2c1ccccc1 (stereo not given)
inactive: [1] 31.3 µM | [2] > 100 µM | [3] 52.2 µM | [4] > 100 µM | [5] > 100 µM | [6] > 100 µM | [7] > 100 µM

C[C@H](O)CCC(=O)c1ccoc1
inactive: [1] > 100 µM | [2] > 100 µM | [3] > 100 µM | [4] > 100 µM | [5] > 100 µM | [6] > 100 µM | [8] 75 µM

Cc1c(-c2coc(-c3ccc([N+](=O)[O-])cc3)n2)c(=O)n(-c2ccccc2)n1C
inactive: [1] > 100 µM | [2] > 100 µM | [3] > 100 µM | [4] > 100 µM | [5] > 100 µM | [6] > 100 µM

NS(=O)(=O)c1ccccc1C(=O)N/N=C(\c1nc2ccc([N+](=O)[O-])cc2[nH]c1=O)C(O)c1ccc([N+](=O)[O-])cc1 (stereo not given)
inactive: [1] > 100 µM | [2] 46.2 µM | [4] > 100 µM | [7] > 100 µM | [8] > 100 µM

Cc1ccc(NC(=O)OCC(COc2ccc(Cl)cc2Cl)OC(=O)Nc2ccc(C)cc2)cc1 (stereo not given)
inactive: [1] 81.5 µM | [2] > 100 µM | [3] > 100 µM | [4] > 100 µM | [5] > 100 µM | [6] > 100 µM | [8] 69.5 µM

CCOC(=O)CC(=O)Sc1ccccc1
inactive: [2] 21.2 µM | [3] 14.4 µM | [4] 20 µM | [6] 20.7 µM | [7] 34.4 µM | [8] > 100 µM

COc1ccccc1NC(=O)CC(=O)n1nc(C)c(/N=N/c2ccccc2C(=O)O)c1C
inactive: [1] > 100 µM | [2] > 100 µM | [3] > 100 µM | [4] > 100 µM | [5] > 100 µM | [6] > 100 µM | [7] > 100 µM

Cc1ccc(/C=N/NS(=O)(=O)c2ccccc2)cc1C
inactive: [1] 36.5 µM | [2] > 100 µM | [3] 46.1 µM | [4] > 100 µM | [5] > 100 µM | [6] > 100 µM | [7] 87.3 µM | [8] > 100 µM

COC(=O)c1nc(NC#N)nc(O)c1C
inactive: [1] > 64.9 µM | [9] > 100 µM | [2] > 100 µM | [3] > 100 µM | [4] > 100 µM | [5] > 60.5 µM | [6] > 69.3 µM | [8] > 100 µM

CCOc1ccc(NC(=O)C2=C(C)NC(C)=C(C(=O)Nc3ccc(OCC)cc3)C2c2ccc([N+](=O)[O-])cc2)cc1
inactive: [1] 22.1 µM | [2] 20 µM | [3] 18.4 µM | [4] 25.9 µM | [5] 34.1 µM | [7] 25.3 µM

O=C(Nc1ccccc1-c1nn(C(=S)Nc2ccccc2)c(=S)n(C(=S)Nc2ccccc2)c1=O)C(F)(F)F
inactive: [1] 17.1 µM | [2] 36.2 µM | [3] 9.38 µM | [4] 24.8 µM | [5] 35.4 µM | [6] 27.4 µM | [7] 23.1 µM | [8] 30.1 µM

O=C1C2CCC(C2)C12CC1(c3ccccc3)C(=O)c3ccccc3N1O2 (stereo not given)
inactive: [1] > 100 µM | [2] > 100 µM | [3] > 100 µM | [4] > 100 µM | [5] > 100 µM | [6] 81.8 µM | [7] > 100 µM | [8] > 100 µM

O=c1[nH]c(=O)n(C2OC(CO)C(O)C2O)cc1OCC(F)(F)F (stereo not given)
inactive: [1] > 100 µM | [2] > 100 µM | [3] > 100 µM | [4] > 100 µM | [5] > 100 µM | [6] > 100 µM | [7] > 100 µM | [8] > 100 µM

C[C@@H](NC1CCCC[C@@H]1O)c1ccccc1 (stereo not given in full)
inactive: [1] > 100 µM | [2] > 100 µM | [4] > 100 µM | [5] > 100 µM | [6] > 100 µM | [7] > 100 µM | [8] > 100 µM

CC/C=C/c1cc2cc[nH]c2c2c1C(C)C[C@@H]2C (stereo not given in full)
inactive: [1] 18.3 µM | [3] 20.6 µM | [4] 34.2 µM | [5] 24.9 µM | [6] > 10 µM | [8] 17.9 µM

CC(=O)OC(C[C@H](C)[C@@H]1CC[C@]2(C)C3=CCC4C(C)(C)C(=O)CC[C@]4(C)C3CCC12C)C1OC1(C)C (stereo not given in full)
inactive: [1] 22.4 µM | [2] 25.5 µM | [3] 32.5 µM | [4] 29.7 µM | [6] 17.1 µM | [7] 18.5 µM | [8] > 100 µM

N[C@@H](Cc1ccc(N(CCCl)CCCl)cc1)C(=O)O [MELPHALAN HYDROCHLORIDE]
inactive: [1] 49.3 µM | [2] 76.2 µM | [3] 20.2 µM | [4] 47 µM | [5] 55.5 µM | [6] 9.71 µM
